B1: BPI: protein isolated from the granules of mammalian polymorphonuclear leukocytes (protein, UniProt P17213 32-487, looked up)
Bactericidal …: VNPGVVVRISQKGLDYASQQGTAALQKELKRIKIPDYSDSFKIKHLGKGHYSFYSMDIREFQLPSSQISMVPNVGLKFSISNANIKISGKWKAQKRFLKMSGNFDLSIEGMSISADLKLGSNPTSGKPTITCSSCSSHINSVHVHISKSKVGWLIQLFHKKIESALRNKMNSQVCEKVTNSVSSELQPYFQTLPVMTKIDSVAGINYGLVAPPATTAETLDVQMKGEFYSENHHNPPPFAPPVMEFPAAHDRMVYLGLSDYFFNTAGLVYQEAGVLKMTLRDDMIPKESKFRLTTKFFGTFLPEVAKKFPNMKIQIHVSASTPPHLSVQPTGLTFYPAVDVQAFAVLPNSSLASLFLIGMHTTGSMEVSAESNRLVGELKLDRLLLELKHSNIGPFPVELLQDIMNYIVPILVLPRVNEKLQKGFPLPTPARVQLYNVVLQPHQNFLLFGADVVYK

Legend:
[1] = test system: Candida albicans designated CA-1, Strain SLU-1; format: cell-based; settings: designated CA-1, Strain SLU-1, 24 h
Experimental: In each broth microdilution assay screening procedure, a colony of Candida albicans designated CA-1, Strain SLU-1 that was received from the laboratories of G. Matuschak and A. Lechner, St. Louis University Hospital, St. Louis, Mo., where the strain was maintained, was inoculated into a tube containing 5 mL Sabouraud Dextrose broth (2% dextrose, 1% neopeptone) and incubated at 37° C. with shaking. The overnight culture was diluted 1:50 into 5 ml of fresh broth and incubated for 3 hours at 37° C. to exponential phase growth. Organisms were pelleted by centrifugation in a Beckman J-6M centrifuge for 5 minutes at 3000 rpm (1500×g) and the pellets were resuspended in 5 mL phosphate buffered saline (PBS) and the optical density (OD) at 570 nm was determined. On the basis of the determination that one OD unit equals 3×10^7 colony forming units/mL (CFU/mL), yeast cells were diluted to 5×10^3 CFU/mL in Sabouraud Dextrose broth (SBD).
Derivatized peptide sequences based on Domain III of BPI to be screened which were originally constituted in Dulbecco's-PBS, were two-fold serially diluted in SDB starting from a concentration of 128 μg/mL. Equal volumes (100 μL) of yeast suspension as prepared above and derivatized peptide solution were added to wells of a 96-well sterile, flat bottom, non-pyrogenic tissue culture microtiter plate (Costar, Cambridge, Mass.) to reach a final volume of 200 μL/well. The plate was incubated on a shaker at 37° C. for 24 hours. All assays were performed in triplicate. Following the incubation period, plates were read in an ELISA plate reader at 595 nm wavelength to determine the minimum inhibitory concentration (MIC), i.e., the lowest concentration required to reduce the optical density at 595 nm to below 0.1 OD.

Candida albicans, SLU-1 = test: 28-day comparative survival efficacy study in mice systemically infected with Candida albicans; format: in vivo, male DBA/2 mice; settings: mice infected iv with C. albicans SLU-1; two doses less than 5 mg/kg; initial experiments (p>0.5)
Experimental: Derivatized peptide-based constructs are tested for activity upon oral administration (oral activity) in a 28-day comparative survival efficacy study in mice systemically infected with Candida albicans. Specifically, male DBA/2 mice (Charles River Laboratories) six weeks of age are dosed with 7.9×10^4 Candida albicans, SLU-1 in 100 μL intravenously via the tail vein in a single dosage on day zero (0). However, other routes of administration, including intraperitoneal (ip) and subcutaneous (sc) routes may be administered. Amphotericin B will provide complete protection at 0.5 mg/kg qod (100% survival). Mortality data will be subjected to Kaplan-Meier survival analysis. All treatment groups may be considered statistically significant vs. saline at p values <0.05.
Treatment begins immediately thereafter with 400 μL oral gavage of either 0.5% dextrose, or derivative compound in 0.5% dextrose at various dosage levels (e.g., 10 mg/kg or 20 mg/kg) according to a prescribed dosing regimen (e.g. every other day for a total of eight times). Amphotericin B (Fungizone®) is administered intravenously at 0.5 mg/kg as a positive control every other day for a total of eight times. Twice-day monitoring (once daily on weekends and holidays) for mortality is performed. The animals treated with antiflngal derivative compound show improvement in mortality compared with the dextrose-treated controls, preferably statistically significant improvement (p-value of […]).

Candida albicans SLU-1 = test: Radial diffusion assay; format: cell-based; settings: 30 mm^2 area of growth inhibition, calculated by PROBIT analysis
Experimental: In the radial diffusion assay procedures, the CA-1 cultures and derivatized peptide solutions were prepared as in the broth microdilution assay procedure described above, i.e., CA-1 was grown to exponential phase in SDB. Ten (10) mL of molten underlayer agarose comprising 3% Sabouraud Dextrose broth, 1% agarose (Pharmacia, Piscataway, N.J.), 0.02% Tween 20, and 10 mM sodium phosphate at pH 7.4, was added to polystyrene tubes and maintained in a 56° C. water bath until the addition of yeast. Tubes were cooled to approximately 45° C., yeast were added to give a final concentration of 1×10^6 CFU/mL, and the tubes were mixed again by inverting. The contents were poured into leveled, square petri dishes and distributed evenly. […] A series of wells were punched into the hardened agarose using a sterile 3 mm punch attached to a vacuum apparatus to achieve a uniform, 3 mm diameter well.
Derivatized peptide sequences to be assayed were 2-fold serially diluted in 10 mM Dulbecco's PBS (D-PBS) starting from a concentration of approximately […]. Five μL of each dilution were added to each well and the plates were incubated at 37° C. for 3 hours to allow for complete diffusion of the test compounds. An overlayer of 10 mL of molten agarose comprising 6% Sabouraud Dextrose broth, 1% agarose, and 10 mM sodium phosphate, pH 7.4, (at approximately 45° C.) was then added and plates were incubated overnight at 37° C. Following this overnight incubation, a dilute Coomassie solution was poured into the plates and allowed to stain for 24 hours to enhance visualization of the zones.
Clear zones of growth inhibition around each well were measured with calipers. The actual area of growth inhibition (mm^2) was calculated by subtracting the area of the well. Table II below sets out the results of the radial diffusion assays for a series of tested peptide-based constructs in terms of the number of picomoles (pmol) of compound required to establish a 30 mm^2 area of growth inhibition of Candida albicans SLU-1 calculated by PROBIT analysis (e.g., calculated from regression of the linear portion of log-concentration dose-response curve, log pmol/well vs. net area of inhibition).

[2] = test system: human, rabbit and sheep red blood cells and several human tumor cell lines; settings: cited from earlier work
gram-negative bacteria = settings: broad range of gram-negative bacteria; concentrations as low as; cited from earlier work
[3] = test system: Candida albicans and Candida parapsilosis; settings: 10^−6 M; pH 7.0 or 5.5; cited from earlier work
[4] = test system: Staphylococcus aureus (four strains), Staphylococcus epidermidis, Streptococcus faecalis, Bacillus subtilis, Micrococcus lysodeikticus, and Listeria …; settings: 160 μg/ml; pH of either 7.0 or 5.5; cited from earlier work

Molecule	Broth Microdilution (MIC values in μg/mL C. albicans SLU1) [1]	improvement in mortality compared with dextrose-treated controls (Candida albicans, SLU-1)	Radial Diffusion (pmol to achieve 30 mm^2 zone C. albicans SLU1) (Candida albicans SLU-1)	toxicity to higher eukaryotic cells [2]	concentration exhibiting anti-bacterial activity (gram-negative bacteria)	toxic effect on fungi [3]	toxic effect on gram-positive organisms [4]
CC[C@@H](C)[C@@H](NC(=O)[C@@H](CC(C)C)NC(=O)[C@@H](Cc1c[nH]c2ccccc12)NC(=O)[C@@H](CCCCN)NC(=O)CCCC[C@@H]1SC[C@@H]2NC(=O)N[C@@H]21)C(=O)N[C@H](CCC(N)=O)C(=O)N[C@H](CC(C)C)C(=O)N[C@H](Cc1ccccc1)C(=O)N[C@H](Cc1c[nH]cn1)C(=O)N[C@H](CCCCN)C(=O)N[C@H](CCCCN)C(N)=O [XMP.519]	1 µg/mL	did not exhibit statistically significant improvement	170 pmol				
CC[C@@H](C)[C@@H](NC(=O)[C@@H](CC(C)C)NC(=O)[C@@H](Cc1c[nH]c2ccccc12)NC(=O)[C@@H](CCCCN)NC(=O)c1ccc2c(c1)-c1ccccc1-2)C(=O)N[C@H](CCC(N)=O)C(=O)N[C@H](CC(C)C)C(=O)N[C@H](Cc1ccccc1)C(=O)N[C@H](Cc1c[nH]cn1)C(=O)N[C@H](CCCCN)C(=O)N[C@H](CCCCN)C(N)=O [XMP.534]	4 µg/mL	did not exhibit statistically significant improvement	>3,371 pmol				
B1				non-toxic	10^−8 to 10^−9 M	no toxic effect	no toxic effect

Source: US6355616B1, “Derivative compounds derived from or based on bactericidal/permeability-increasing protein” (priority 1999, dated 2002)
